“Also recorded” adds a separate entry of the source. Read-outs that look alike come from different tables or passages of the source.
Tests used:
USSR H1N1 virus [1] = assay: microbe, parasite or virus in culture; format: cell-based, influenza A virus
USSR H1N1 virus [2] = assay: microbe, parasite or virus in culture; format: cell-based, influenza A virus; remark: listed apart in the source
[3] = tested on: extracellular Ca^2+ influx; assay: Fluo-8 intracellular Ca2+ monitoring assay (NPTr cells; TG also in other cell types); format: cell-based, pig
pdm H1N1 virus = format: cell-based, influenza A virus
USSR H1N1 virus [4] = format: cell-based, influenza A virus
USSR H1N1 virus [5] = format: cell-based, influenza A virus; remark: listed apart in the source
[6] = tested on: RSV (A2 strain, ATCC VR-1540); assay: RSV production from primed HEp2 cells (immuno-detection of RSV); format: cell-based, human respiratory syncytial virus
Description: (§1) Spun supernatants were collected to infect HEp2 cells for 24 h for immuno-detection of RSV. TG doses used to prime HEp2 cells were non-toxic. 30 min TG treated cells were rinsed, cultured overnight and subjected to cell viability assays (CellTiter-Glo® Luminescent Cell Viability Assay kit, Promega. Results are shown in FIG. 22.
Spun supernatants from infected samples were collected to infect HEp2 cells for 24 h for immuno-detection of RSV.
In further experiments, HEp2 cells were first infected with RSV at 0.1 MOI for 24 or 48 h followed by priming with TG or DMSO control for 30 min. Fresh media were used to replace TG containing media of 24 h infected cells; and supernatants collected earlier from 48 h infected cells were used to replace TG containing media of 48 h infected cells. All samples were infected for total period 72 h. Spun supernatants were collected to infect HEp2 cells for 24 h for RSV immuno-detection. DMSO controls were based on combined control supernatants from 24 and 48 h time points.

[7] = CellTiter-Glo luminescent cell viability assay, HEp2 cells; format: cell-based; conditions: human, HEp-2 cells
Description: as §1

DDIT3, HSPA5 and HSP90B1 = format: cell-based, pig; conditions: NPTr cells
RIG-I, OAS1 and PKR = format: cell-based, pig
viral NP and M1 protein = format: cell-based, influenza A virus; conditions: 0.5 μM TG (NPTr, myoblasts) or 0.005 μM TG (NHBE) 30 min, USSR H1N1, 24 h
NHBE cells = conditions: TG concentrations used for priming
influenza A virus = conditions: MDCK cells, 0.001 μM TG over 48 h of infection; cited from earlier work
in vitro [8] = conditions: human
in vitro [9] = conditions: pig
viral M-gene = format: cell-based, influenza A virus; conditions: NPTr cells

CC1=C2CC[C@@H](C)[C@H]2[C@H]2[C@@H](CC1)C2(C)C [(+)-ledene]
progeny virus output (USSR H1N1 virus [1]): dramatic reduction in progeny virus output; also recorded: reduced progeny virus output
USSR H1N1 virus production (USSR H1N1 virus [2]): reduced USSR H1N1 virus production like that of TG

Cc1nnsc1C(=O)Nc1ccc(-n2nc(C(F)(F)F)cc2C(F)(F)F)cc1 [BTP2, reference compound]
progeny virus release (USSR H1N1 virus [2]): small increase in progeny virus release

CC(=O)C1=C(O)[C@@H]2[C@H]3c4c[nH]c5cccc(c45)C[C@H]3C(C)(C)N2C1=O [CPA, Cyclopiazonic acid]
concentration from which Ca^2+ influx was detected [3]: ≥ 10 µM
reduction in ATP production (NPTr cells; 5 μM CPA 30 min, 24 h incubation): 8.3%

COc1ccc(OC)c(-c2ccc(NC(=O)c3ccncc3F)cc2)c1 [Synta66, reference compound]
progeny virus release (USSR H1N1 virus [2]): small increase in progeny virus release

C/C=C(/C)C(=O)O[C@H]1C(C)=C2[C@H]([C@@H]1OC(=O)CCCCCCC)[C@@](C)(OC(C)=O)C[C@H](OC(=O)CCC)[C@@]1(O)[C@H]2OC(=O)[C@@]1(C)O [TG, thapsigargin]
virus output (USSR H1N1 virus [1]): marked reduction in virus output
IC50 (USSR H1N1 virus [1]; Influenza A virus, H1N1, NHBE, read-out: USSR virus inhibitory concentration [IC50]): 0.00391 µM
progeny virus output (USSR H1N1 virus [1]; NHBE cells, 5 nM TG for 30 min): dramatic reduction in progeny virus output
selectivity index (CC50/IC50) (USSR H1N1 virus [1]; NHBE cells, USSR H1N1): 8572.89
duration of the antiviral state (USSR H1N1 virus [2]): at least 24 h
virus output (USSR H1N1 virus [2]): marked reduction in virus output
IC50 (USSR H1N1 virus [2]; Influenza A virus, H1N1, read-out: IC50 (50% reduction of progeny virus)): 0.00712 µM
virus reduction (USSR H1N1 virus [2]; NPTr cells pre-primed with 0.1 μM TG for 30 min): 82%
virus reduction (USSR H1N1 virus [2]; NPTr cells pre-primed with 0.5 μM TG for 30 min): 93%
selectivity index (CC50/IC50) (USSR H1N1 virus [2]; NPTr cells, USSR H1N1): 7952.21
virus production, TG before vs after an initial infection period of 6 h (pdm H1N1 virus; NPTr (0.5 μM, pdm H1N1), NHBE (0.01 μM, USSR H1N1), myoblasts (0.5 μM, USSR H1N1), 30 min): comparable reduction in virus production
duration of the antiviral state (USSR H1N1 virus [4]): at least 24 h
duration of the antiviral state (USSR H1N1 virus [5]): at least 24 h
virus output (USSR H1N1 virus [5]): marked reduction in virus output
duration of sustained anti-viral effect on RSV after priming ([6]; HEp2 cells, 30 min priming): over 48 h
RSV production, priming during infection ([6]; HEp2 cells, TG 30 min at 48 h post-infection): rapidly effective in blocking virus production
RSV production ([6]; HEp2 cells, TG at non-toxic levels 30 min before infection, RSV 0.1 MOI 3 days): blocks RSV production
selectivity index ([6]; HEp-2 cells, 3 d infection period): 1346.499
IC50 ([6]; human respiratory syncytial virus, 72 h, HEp-2 cells, 3 d infection period): 0.0668 µM
CC50 [7]: 90 µM
Ca^2+ influx ([3]; brief TG exposure (10 min), primary porcine myoblasts, PTECs and NHBE cells, dependent on extracellular Ca^2+): modest Ca^2+ influx
expression of ER stress associated genes (DDIT3, HSPA5 and HSP90B1) (DDIT3, HSPA5 and HSP90B1; TG at non-toxic levels, porcine myoblasts and NHBE cells, dose-dependent): consistently elevated ER stress associated genes
expression of type I IFN associated genes (RIG-I, OAS1) in response to infection (RIG-I, OAS1 and PKR; TG priming before or during infection, different cell types): consistently increased the expression of type I IFN associated genes
viral NP and M1 protein (viral NP and M1 protein): no or only small reduction in viral NP and M1 protein
cytotoxic effect on cell viability (ATP production, caspase 3/7 activity) (NHBE cells): no cytotoxic effect on cell viability
cytotoxic effect on cell viability (ATP production, caspase 3/7 activity) (NPTr cells; NPTr cells, TG concentrations used for priming): no cytotoxic effect on cell viability
progeny influenza virus output (influenza A virus): increase progeny influenza virus output
CC50 (in vitro [8]): 33.5 µM
CC50 (in vitro [9]): 56.6 µM

C[C@@H]1CC[C@H]2[C@@H](C)C(=O)O[C@@H]3O[C@@]4(C)CC[C@@H]1[C@]32OO4 [artemisinin, reference compound]
USSR H1N1 virus production (USSR H1N1 virus [2]): reduced USSR H1N1 virus production like that of TG
progeny viral output (USSR H1N1 virus [2]): reduces progeny viral output
progeny viral output (pdm H1N1 virus): reduces progeny viral output
viral M-gene expression (viral M-gene; artemisinin 0.1 μM and 1.0 μM): without significant alteration in viral M-gene expression

C=C1C(=O)O[C@@H]2[C@H]3C(C)=CC(=O)C3=C(C)CC[C@@H]12 [dehydroleucodine]
progeny virus output (USSR H1N1 virus [1]): reduced progeny virus output

CC1=C2[C@H](/C=C(\C)C(=O)O)CC[C@@H](C)[C@H]2CC1 [valerenic acid]
USSR H1N1 virus production (USSR H1N1 virus [2]): reduced USSR H1N1 virus production like that of TG

Tunicamycin [reference compound]
virus production (USSR H1N1 virus [2]): only slightly reduced virus production
virus production relative to correspondingly infected TG primed cells (USSR H1N1 virus [2]; NPTr cells, USSR H1N1, tunicamycin primed vs TG 0.5 μM): 7.5 times
virus production relative to correspondingly infected TG primed cells (pdm H1N1 virus; NPTr cells, pdm H1N1, tunicamycin primed vs TG 0.5 μM): 2.8 times
Ca^2+ influx ([3]; tunicamycin at non-toxic doses): did not induce Ca^2+ influx
induction of ER stress associated genes, higher than by TG (DDIT3, HSPA5 and HSP90B1; tunicamycin 1.0 μg/ml vs TG 0.5 μM): 3 to 8.2 fold
expression of type I IFN associated genes (RIG-I, OAS1 and PKR) in response to infection (RIG-I, OAS1 and PKR; NPTr cells, tunicamycin primed): little change in the expression of type I IFN associated genes
viral M-gene expression (viral M-gene; tunicamycin primed): without reduction in viral M-gene expression
cell viability (NPTr cells; NPTr cells, tunicamycin 30 min, non-toxic doses): did not affect cell viability

dehydroleucodine
USSR H1N1 virus production (USSR H1N1 virus [2]): reduced USSR H1N1 virus production like that of TG
